Source: paper PMC7193532 (Acta Crystallographica. Section D, Structural Biology, 2020)
*1 amine or outer side, *2 acyl side, *3 side chain or, on linkers, in order; H or OH if unused. Where a SMILES comes first, the peptide text is derived from it. Bridges are numbered along the chain shown (N, C = ends). [ ]: non-standard residue; d: D form. The star is where a group is joined. ξ: configuration not given here. Phe(3R-OH) = O=C([C@@H](N[*:1])[C@H](O[*:3])c1ccccc1)[*:2]; NMeTrp(4-OMe) = CN[CH](Cc1c[nH]c2cccc(OC)c12)C(=O)O; X1 = O=C(C(N[*:1])C(O)c1ccccc1)[*:2]; NMeT = CN[CH](C(=O)O)[CH](C)O; NMeI = CC[CH](C)[CH](NC)C(=O)O; ξNMe2Val = CC(C)C(C(=O)*)N(C)C; NMeL = CN[CH](CC(C)C)C(=O)O; NMeV = CN[CH](C(=O)O)C(C)C

Columns and labels:
Type in all cases: binding
ClpC1-FL Q17A = ClpC1-FL Q17A (Mycobacterium tuberculosis, UniProt P9WPC9, Q17A)
ClpC1-FL K85A = ClpC1-FL K85A (Mycobacterium tuberculosis, UniProt P9WPC9, K85A)
ClpC1-FL L92S/L96P = ClpC1-FL L92S/L96P (Mycobacterium tuberculosis, UniProt P9WPC9, L92S/L96P)
ClpC1-NTD MAFER = ClpC1-NTD MAFER (Mycobacterium tuberculosis, UniProt P9WPC9); conditions: relative to wild type
ClpC1-NTD MVFER = ClpC1-NTD MVFER (Mycobacterium tuberculosis, UniProt P9WPC9); conditions: relative to wild type
ClpC1-NTD FER = ClpC1-NTD FER (Mycobacterium tuberculosis, UniProt P9WPC9); conditions: relative to wild type
ClpC1-NTD AAFER = ClpC1-NTD AAFER (Mycobacterium tuberculosis, UniProt P9WPC9)
ClpC1-FL V14A = ClpC1-FL V14A (Mycobacterium tuberculosis, UniProt P9WPC9, V14A)

Structure (SMILES) | reduction of binding, Q17A (ClpC1-FL Q17A) | reduction of binding affinity, K85A (ClpC1-FL K85A) | binding to double mutant L92S/L96P (in words) (ClpC1-FL L92S/L96P) | decrease of binding, insertion of Ala before Phe2 (ClpC1-NTD MAFER) [fold] | reduction of binding, insertion of Val before Phe2 (ClpC1-NTD MVFER) | reduction of binding affinity, deletion of Met1 (ClpC1-NTD FER) | reduction of binding affinity, Met1Ala mutation and Ala insertion (ClpC1-NTD AAFER) [fold] | reduction of binding affinity, V14A (ClpC1-FL V14A) | reduction of binding affinity, L92S/L96P (ClpC1-FL L92S/L96P)
CCC(C)C(C(=O)NC1C(=O)N(C)C(C(C)O)C(=O)NC(C(C)C)C(=O)N(C)C(CC(C)C)C(=O)NC(C(C)C)C(=O)N(C)C(C(C)C)C(=O)N(C)C(Cc2c[nH]c3cccc(OC)c23)C(=O)NC(C(C)C)C(=O)NC(C(O)c2ccccc2)C(=O)NC(C(C)C)C(=O)OC1C)N(C)C(=O)C(NC(=O)C(C(C)C)N(C)C)C(C)C (centres unmarked) [ECU, ecumicin] (ξNMe2Val-V[NMeI]T[NMeT]V[NMeL]V[NMeV][NMeTrp(4-OMe)]V[X1]V; ester 3-C; configuration not given here) | sevenfold | ninefold | abolished binding | 72 | 82 fold | 62 fold | 68 | – | –
CN[C@H](C(=O)N[C@H](C(=O)N[C@@H]1C(=O)N(C)[C@@H]([C@@H](C)O)C(=O)N[C@@H](C(C)C)C(=O)N(C)[C@@H](CC(C)C)C(=O)N[C@@H](C(C)C)C(=O)N(C)[C@@H](C(C)C)C(=O)N(C)[C@@H](Cc2c[nH]c3cccc(OC)c23)C(=O)N[C@@H](C(C)C)C(=O)N[C@@H]([C@H](O)c2ccccc2)C(=O)N[C@@H](C(C)C)C(=O)O[C@@H]1C)C(C)C)C(C)C [OMS-A, ohmyungsamycin A] (H-[NMeV]VT[NMeT]V[NMeL]V[NMeV][NMeTrp(4-OMe)]V[Phe(3R-OH)]V; ester 3-C) | – | – | abolished binding | – | – | – | – | – | –
C/C=C/C[C@@H]1NC(=O)[C@H](CC(C)C)N(C)C(=O)[C@H](CC(C)C)NC(=O)[C@H](Cc2ccc(O)c([N+](=O)[O-])c2)NC(=O)[C@H](C)N2C(=O)[C@H](CC(C)C2O)N(C)C(=O)[C@H](Cc2cn(C(C)(C)C3CO3)c3ccccc23)NC1=O (some centres unmarked) [RUF-I, rufomycin I] | 17 fold | fivefold | – | – | sixfold | fivefold | – | eightfold | threefold
